According to patent US9901578B2, “Combination of 10-propargyl-10-deazaaminopterin and erlotinib for the treatment of non-small cell lung cancer” (Allos Therapeutics, Inc., priority 2007, dated 2018):
Values joined by “and” are separate entries in the source; they are usually repeats but may differ in a detail not shown here. Equal values may be shown once. “Also recorded” adds a separate entry of the source. Read-outs that look alike come from different tables or passages of the source.

How the values were obtained:
[1] = Experimental: To evaluate the doses to be tested in the xenograft mouse model, non-tumor bearing female athymice nu/nu mice were treated with 2 mg/kg of PDX alone and in combination with 50 mg/kg of Tarceva® as described in Table 1. Animals were monitored daily for routine health observation. Body weight of the animals was recorded daily during the treatment phase and thereafter twice weekly for 14 days after the last treatment).
A549 xenograft = A549 xenograft mouse model, tumor volume; format: in vivo, athymic nu/nu mice; details: for Effect on tumor growth: 35 days
Experimental: Xenotransplant of A549 was established by subcutaneous inoculation of 5×10^6 cells on the right flank using a 21G needle in 6-8 week female athymic nude mice. A total of 75 animals were injected with A549 xenotransplant. Tumor volume was monitored twice weekly, once the established tumor reached 75-150 mm^3 (individual tumor range between 70 to 200 mm^3) the mice were randomized to the different groups as described in Table 2.
Tumor volume and body weights were measured twice weekly up to 58 days following A549 inoculation. Tumor volume was calculated using the following formula: Tumor volume=(A^2×B/2) where A is the smallest diameter and B is the largest diameter.
The treatment was initiated on the day of randomization according to the schedule described in Table 2. PDX was administered via IP injection and Tarceva® by oral gavage. PBS and 0.5% CMC were administrated to Group 1 as control vehicles by IP and PO routes, respectively.
Statistical analysis was performed using Graphpad Prism software. Comparison between control group and treatment groups was performed using 2 way ANOVA analysis.

A549 cells = assay: In vitro growth inhibition in A549 cells; format: cell-based, human
Experimental: The human non small lung carcinoma cell line A549 was purchased from the American Type Culture Collection (ATCC, Manassas, Va.). The cell line was cultured in Ham's F 12K medium with 2 mM L-glutamine 1.5 g/L sodium bicarbonate, supplemented with 10% fetal bovine serum and was maintained at 37° C. in a humidified atmosphere at 5% CO2 and 95% air.
An in vitro study in A549 cells was performed to compare the growth inhibition activity of PDX to that of cisplatin, paclitaxel, and docetaxel.

[2] = test system: FPGS activity (polyglutamylation); assay: Polyglutamylation of radiolabeled drug in H460 cells; format: cell-based, human; details: lysates of treated H460 cells; PDX, MTX 5 μM, Alimta 20 μM
H460 cells = assay: Short-term uptake of radiolabeled drug in H460 cells; format: cell-based, human; details: for Total uptake of radiolabeled drug: measured at 15 and 60 minutes, PDX, MTX 5 μM, Alimta 20 μM
[3] = test system: TS enzymatic activity and protein expression, and DHFR protein content; assay: Activity/expression of folate-dependent enzymes in harvested tumors; format: in vivo; details: H460 and MV522 tumor xenografts
Text: (§1) Endpoints included mean tumor growth inhibition or regression. We further evaluated activity and/or expression of folate-dependent enzymes: DHFR, thymidylate synthase (TS), and folylpolyglutamate synthase (FPGS) using kinetic assays and immunostaining in tumors harvested at the end of the study from animals treated with the antifolates or vehicle controls. In vitro studies included evaluation of reduced folate carrier (RFC) expression by quantitative RT-PCR in MV522, and H460, xenograft models. […] Inhibition of DHFR by the three antifolates was quantified in a cell-free assay against human recombinant DHFR.

MV522 xenografts = assay: MV522 non-small cell lung carcinoma human tumor xenograft; format: in vivo; details: PDX 1 mg/kg and 2 mg/kg
Text: as §1

human recombinant DHFR = target: T1, human recombinant DHFR (Homo sapiens, UniProt P00374); assay: DHFR inhibition in a cell-free assay; format: biochemical; details: read-out: Apparent Ki for DHFR inhibition
T1 sequence (P00374 1-187): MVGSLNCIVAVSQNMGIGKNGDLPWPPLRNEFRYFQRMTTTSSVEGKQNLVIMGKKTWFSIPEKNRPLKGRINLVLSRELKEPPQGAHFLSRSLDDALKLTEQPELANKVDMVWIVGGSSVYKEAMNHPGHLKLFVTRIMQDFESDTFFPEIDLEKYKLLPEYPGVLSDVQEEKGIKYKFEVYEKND
Text: as §1

H460 xenografts = assay: H460 non-small cell lung carcinoma human tumor xenograft; format: in vivo; details: PDX 1 mg/kg and 2 mg/kg
Text: as §1

C#Cc1cccc(Nc2ncnc3cc(OCCOC)c(OCCOC)cc23)c1 [Tarceva, [6,7-bis(2-methoxyethoxy)-4-quinazolin-4-yl]-(3-ethynylphenyl)amine, reference compound]
Tolerability ([1]; mouse, in vivo): well tolerated
Effect on tumor growth (A549 xenograft; Tarceva 50 mg/kg PO): did not control tumor growth
Tumor volume Avg ± SD (A549 xenograft; Tarceva 50 mg/kg PO, day 0): 131 ± 47. mm^3
Tumor volume Avg ± SD (A549 xenograft; Tarceva 50 mg/kg PO, day 3): 166 ± 80. mm^3
Tumor volume Avg ± SD (A549 xenograft; Tarceva 50 mg/kg PO, day 7): 216 ± 121 mm^3
Tumor volume Avg ± SD (A549 xenograft; Tarceva 50 mg/kg PO, day 10): 214 ± 140 mm^3
Tumor volume Avg ± SD (A549 xenograft; Tarceva 50 mg/kg PO, day 14): 249 ± 130 mm^3
Tumor volume Avg ± SD (A549 xenograft; Tarceva 50 mg/kg PO, day 17): 271 ± 206 mm^3
Tumor volume Avg ± SD (A549 xenograft; Tarceva 50 mg/kg PO, day 21): 270 ± 210 mm^3
Tumor volume Avg ± SD (A549 xenograft; Tarceva 50 mg/kg PO, day 24): 294 ± 261 mm^3
Tumor volume Avg ± SD (A549 xenograft; Tarceva 50 mg/kg PO, day 28): 308 ± 280 mm^3
Tumor volume Avg ± SD (A549 xenograft; Tarceva 50 mg/kg PO, day 35): 358±282 mm^3 and 357 ± 282 mm^3

N.N.[Cl][Pt][Cl] [Cisplatin]
IC50 (A549 cells): 0.0224 µM

Nc1nc2[nH]cc(CCc3ccc(C(=O)N[C@@H](CCC(=O)O)C(=O)O)cc3)c2c(=O)[nH]1 [Alimta, pemetrexed]
Polyglutamylation [2]: much lesser polyglutamylation
Total uptake of radiolabeled drug (H460 cells): decreased later

C#CCC(Cc1cnc2nc(N)nc(N)c2n1)c1ccc(C(=O)N[C@@H](CCC(=O)O)C(=O)O)cc1 (stereo partly shown) [PDX, 10-Propargyl-10-deazaaminopterin]
Effect on TS enzymatic activity and protein expression, and DHFR protein content [3]: down-regulated most of these endpoints
Tolerability ([1]; PDX 2 mg/kg IP QDx5 two cycles, Tarceva 50 mg/kg PO QDx21, alone or combined): well tolerated
Tumor growth (MV522 xenografts): dose-dependently inhibited tumor growth
Ki (human recombinant DHFR): 0.045 µM
Polyglutamylation [2]: greater polyglutamylation
Tumor growth (H460 xenografts): dose-dependently inhibited tumor growth
IC50 (A549 cells; Homo sapiens): 0.0651 µM
Effect on tumor growth (A549 xenograft; PDX 1 mg/kg IP QDx5 two cycles): a trend in reducing tumor growth; also recorded: a trend toward controlling tumor growth
Tumor volume Avg ± SD (A549 xenograft; PDX 1 mg/kg IP QDx5 two cycles, day 0): 132 ± 52. mm^3
Tumor volume Avg ± SD (A549 xenograft; PDX 1 mg/kg IP QDx5 two cycles, day 3): 148 ± 67. mm^3
Tumor volume Avg ± SD (A549 xenograft; PDX 1 mg/kg IP QDx5 two cycles, day 7): 176 ± 87. mm^3
Tumor volume Avg ± SD (A549 xenograft; PDX 1 mg/kg IP QDx5 two cycles, day 10): 158 ± 93. mm^3
Tumor volume Avg ± SD (A549 xenograft; PDX 1 mg/kg IP QDx5 two cycles, day 14): 199 ± 79. mm^3
Tumor volume Avg ± SD (A549 xenograft; PDX 1 mg/kg IP QDx5 two cycles, day 17): 190 ± 78. mm^3
Tumor volume Avg ± SD (A549 xenograft; PDX 1 mg/kg IP QDx5 two cycles, day 21): 179 ± 112 mm^3
Tumor volume Avg ± SD (A549 xenograft; PDX 1 mg/kg IP QDx5 two cycles, day 24): 191 ± 105 mm^3
Tumor volume Avg ± SD (A549 xenograft; PDX 1 mg/kg IP QDx5 two cycles, day 28): 201 ± 114 mm^3
Tumor volume Avg ± SD (A549 xenograft; PDX 1 mg/kg IP QDx5 two cycles, day 35): 224±128 mm^3
Effect on tumor growth (A549 xenograft; PDX 2 mg/kg IP QDx5 two cycles): a trend in reducing tumor growth; also recorded: a trend toward controlling tumor growth; also recorded: inhibited the growth of the A549 xenografts
Tumor volume Avg ± SD (A549 xenograft; PDX 2 mg/kg IP QDx5 two cycles, day 0): 131 ± 49. mm^3
Tumor volume Avg ± SD (A549 xenograft; PDX 2 mg/kg IP QDx5 two cycles, day 3): 133 ± 60. mm^3
Tumor volume Avg ± SD (A549 xenograft; PDX 2 mg/kg IP QDx5 two cycles, day 7): 166 ± 75. mm^3
Tumor volume Avg ± SD (A549 xenograft; PDX 2 mg/kg IP QDx5 two cycles, day 10): 139 ± 70. mm^3
Tumor volume Avg ± SD (A549 xenograft; PDX 2 mg/kg IP QDx5 two cycles, day 14): 207 ± 100 mm^3
Tumor volume Avg ± SD (A549 xenograft; PDX 2 mg/kg IP QDx5 two cycles, day 17): 174 ± 104 mm^3
Tumor volume Avg ± SD (A549 xenograft; PDX 2 mg/kg IP QDx5 two cycles, day 21): 194 ± 114 mm^3
Tumor volume Avg ± SD (A549 xenograft; PDX 2 mg/kg IP QDx5 two cycles, day 24): 194 ± 101 mm^3
Tumor volume Avg ± SD (A549 xenograft; PDX 2 mg/kg IP QDx5 two cycles, day 28): 189 ± 106 mm^3
Tumor volume Avg ± SD (A549 xenograft; PDX 2 mg/kg IP QDx5 two cycles, day 35): 210±109 mm^3
Total uptake of radiolabeled drug (H460 cells): increased over time

CC(=O)O[C@@]12CO[C@@H]1C[C@H](O)[C@@]1(C)C(=O)[C@H](O)C3=C(C)[C@@H](OC(=O)[C@H](O)[C@@H](NC(=O)OC(C)(C)C)c4ccccc4)C[C@@](O)([C@@H](OC(=O)c4ccccc4)[C@H]21)C3(C)C [Docetaxel]
IC50 (A549 cells; Homo sapiens): 0.0236 µM

CC(=O)O[C@H]1C(=O)[C@@]2(C)[C@H]([C@H](OC(=O)c3ccccc3)[C@]3(O)C[C@H](OC(=O)[C@H](O)[C@@H](NC(=O)c4ccccc4)c4ccccc4)C(C)=C1C3(C)C)[C@]1(OC(C)=O)CO[C@@H]1C[C@@H]2O [Paclitaxel]
IC50 (A549 cells; Homo sapiens): 0.109 µM

CN(Cc1cnc2nc(N)nc(N)c2n1)c1ccc(C(=O)N[C@@H](CCC(=O)O)C(=O)O)cc1 [MTX, methotrexate]
Polyglutamylation [2]: much lesser polyglutamylation
Fraction of radiolabeled drug that entered the cells (H460 cells; in comparison with PDX or Alimta): significantly smaller fraction
